Tested on: KRAS patient-derived spheroids with HUVEC/MSC, viability
Experiment: Anticancer human tumor 941728-121-R-J1-PDC patient-derived lung adenocarcinoma cell line growth inhibition [KRAS2]
Conditions: for IC50: curve of first compound; for viability, T/C: stronger effect = lower value
Outline: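 Combination screen of spheroid viability in tumor-cell co-cultures with endothelial (HUVEC) and mesenchymal stem cell stroma. Each agent was tested in half-log dilutions, topping at clinical Cmax or at 10 microM without a known Cmax.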

[1] = second compound 0.1 µM, first compound 0.00316 µM
[2] = second compound 0.1 µM, first compound 0.01 µM
[3] = second compound 0.1 µM, first compound 0.0316 µM
[4] = second compound 0.1 µM, first compound 0.1 µM
[5] = second compound 0.1 µM, first compound 0.316 µM
[6] = second compound 0.1 µM, first compound 1 µM
[7] = second compound 0.316 µM, first compound 0.00316 µM
[8] = second compound 0.316 µM, first compound 0.01 µM
[9] = second compound 0.316 µM, first compound 0.0316 µM
[10] = second compound 0.316 µM, first compound 0.1 µM
[11] = second compound 0.316 µM, first compound 0.316 µM
[12] = second compound 0.316 µM, first compound 1 µM
[13] = second compound 1 µM, first compound 0.00316 µM
[14] = second compound 1 µM, first compound 0.01 µM
[15] = second compound 1 µM, first compound 0.0316 µM
[16] = second compound 1 µM, first compound 0.1 µM
[17] = second compound 1 µM, first compound 0.316 µM
[18] = second compound 1 µM, first compound 1 µM
[19] = second compound 3.16 µM, first compound 0.00316 µM
[20] = second compound 3.16 µM, first compound 0.01 µM
[21] = second compound 3.16 µM, first compound 0.0316 µM
[22] = second compound 3.16 µM, first compound 0.1 µM
[23] = second compound 3.16 µM, first compound 0.316 µM
[24] = second compound 3.16 µM, first compound 1 µM
[25] = second compound 10 µM, first compound 0.00316 µM
[26] = second compound 10 µM, first compound 0.01 µM
[27] = second compound 10 µM, first compound 0.0316 µM
[28] = second compound 10 µM, first compound 0.1 µM
[29] = second compound 10 µM, first compound 0.316 µM
[30] = second compound 10 µM, first compound 1 µM
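Further: spheroids exposed to agents for seven days before readout.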

Row | SMILES | IC50 (second compound 0.1 µM) | IC50 (second compound 0.316 µM) | IC50 (second compound 1 µM) | IC50 (second compound 3.16 µM) | IC50 (second compound 10 µM) | viability, T/C [1] | viability, T/C [2] | viability, T/C [3] | viability, T/C [4] | viability, T/C [5] | viability, T/C [6] | viability, T/C [7] | viability, T/C [9] | viability, T/C [10] | viability, T/C [15] | viability, T/C [16] | viability, T/C [21] | viability, T/C [22] | viability, T/C [27] | viability, T/C [28] | also measured
1 | CCN1CCN(Cc2ccc(Nc3ncc(F)c(-c4cc(F)c5nc(C)n(C(C)C)c5c4)n3)nc2)CC1 + CNCc1ccccc1-c1csc(C(C)Nc2nc(C)nc3cc(OC)c(OC)cc23)c1 | 6.14 nM | < 3.16 nM | < 3.16 nM | < 3.16 nM | < 3.16 nM | 58.2% | 43.9% | 40% | 43.7% | 38.4% | 53% | 44% | 31% | 28.9% | 18.7% | 17.1% | 1.42% | 2.24% | 0.84% | 0.24% | viability, T/C [8]: 38.5%; viability, T/C [11]: 30.6%; viability, T/C [12]: 46.8%; viability, T/C [13]: 22.1%; viability, T/C [14]: 25.4%; viability, T/C [17]: 16.9%; viability, T/C [18]: 5.4%; viability, T/C [19]: 1.35%; viability, T/C [20]: 1.57%; viability, T/C [23]: 0.67%; viability, T/C [24]: 2.46%; viability, T/C [25]: 0.72%; viability, T/C [26]: 0.55%; viability, T/C [29]: 0.74%; viability, T/C [30]: 0.15%
2 | CCNC(=O)CC1N=C(c2ccc(Cl)cc2)c2cc(OC)ccc2-n2c(C)nnc21 (stereo not given) + CNCc1ccccc1-c1csc(C(C)Nc2nc(C)nc3cc(OC)c(OC)cc23)c1 | 64.4 nM | < 31.6 nM | < 31.6 nM | < 31.6 nM | < 31.6 nM |  |  | 53.8% | 48.9% | 40.2% | 35.5% |  | 38.7% | 37.1% | 30% | 27.2% | 1.35% | 2.8% | 0.51% | 0.89% | viability, T/C (second compound 0.1 µM, first compound 3.16 µM): 34.1%; viability, T/C (second compound 0.1 µM, first compound 10 µM): 28.6%; viability, T/C [11]: 27.8%; viability, T/C [12]: 25.8%; viability, T/C (second compound 0.316 µM, first compound 3.16 µM): 20.6%; viability, T/C (second compound 0.316 µM, first compound 10 µM): 19.8%; viability, T/C [17]: 20.7%; viability, T/C [18]: 17.4%; viability, T/C (second compound 1 µM, first compound 3.16 µM): 12.9%; viability, T/C (second compound 1 µM, first compound 10 µM): 11%; viability, T/C [23]: 0.83%; viability, T/C [24]: 1.53%; viability, T/C (second compound 3.16 µM, first compound 3.16 µM): 1.46%; viability, T/C (second compound 3.16 µM, first compound 10 µM): 1.72%; viability, T/C [29]: 0.25%; viability, T/C [30]: 0.86%; viability, T/C (second compound 10 µM, first compound 3.16 µM): 0.86%; viability, T/C (second compound 10 µM, first compound 10 µM): 0.53%
3 | Cn1ncnc1[C@H]1c2n[nH]c(=O)c3cc(F)cc(c23)N[C@@H]1c1ccc(F)cc1 + CNCc1ccccc1-c1csc(C(C)Nc2nc(C)nc3cc(OC)c(OC)cc23)c1 | 6.44 nM | < 0.316 nM | < 0.316 nM | < 0.316 nM | < 0.316 nM | 47.4% | 44.4% | 44.3% | 37.2% |  |  | 27.9% | 26.3% | 27.4% | 10.9% | 15.1% | 0.09% | 0.18% | 0.12% | 0.16% | viability, T/C (second compound 0.1 µM, first compound 0.000316 µM): 52.8%; viability, T/C (second compound 0.1 µM, first compound 0.001 µM): 70.3%; viability, T/C (second compound 0.316 µM, first compound 0.000316 µM): 35.8%; viability, T/C (second compound 0.316 µM, first compound 0.001 µM): 30.6%; viability, T/C [8]: 29.3%; viability, T/C (second compound 1 µM, first compound 0.000316 µM): 14.4%; viability, T/C (second compound 1 µM, first compound 0.001 µM): 15.7%; viability, T/C [13]: 15.4%; viability, T/C [14]: 14.4%; viability, T/C (second compound 3.16 µM, first compound 0.000316 µM): 0.11%; viability, T/C (second compound 3.16 µM, first compound 0.001 µM): 0.05%; viability, T/C [19]: 0.16%; viability, T/C [20]: 0.06%; viability, T/C (second compound 10 µM, first compound 0.000316 µM): 0.08%; viability, T/C (second compound 10 µM, first compound 0.001 µM): 0.09%; viability, T/C [25]: 0.08%; viability, T/C [26]: 0.09%
